Activity calls are given as the source filed them.
Columns and labels:
Schistosoma mansoni [1] = assay: Antischistosomal activity against adult stage of Schistosoma mansoni assessed as uncoordinated and slowed motility at 5 uM measured after 5 hrs; format: functional, organism-based
HEK293 = assay: Cytotoxicity against human HEK293 cells measured after 48 hrs; format: toxicity, cell-based; conditions: hek293, 48 h
Schistosoma mansoni [2] = assay: Antischistosomal activity against adult stage of Schistosoma mansoni assessed as degenerative and lethal changes at 5 uM measured after 48 hrs; format: functional, organism-based
Schistosoma mansoni [3] = assay: Antischistosomal activity against adult stage of Schistosoma mansoni assessed as degenerative and lethal changes at 5 uM measured after 5 hrs; format: functional, organism-based
Schistosoma mansoni [4] = assay: Antischistosomal activity against adult stage of Schistosoma mansoni assessed as uncoordinated and slowed motility at 5 uM measured after 1 hr; format: functional, organism-based
Schistosoma mansoni [5] = assay: Antischistosomal activity against adult stage of Schistosoma mansoni assessed as degenerative and lethal changes at 5 uM measured after 24 hrs; format: functional, organism-based
Schistosoma mansoni [6] = assay: Antischistosomal activity against adult stage of Schistosoma mansoni assessed as degenerative and lethal changes at 5 uM measured after 1 hr; format: functional, organism-based
Schistosoma mansoni [7] = assay: Antischistosomal activity against adult stage of Schistosoma mansoni assessed as uncoordinated and slowed motility at 5 uM measured after 48 hrs; format: functional, organism-based
Schistosoma mansoni [8] = assay: Antischistosomal activity against adult stage of Schistosoma mansoni assessed as uncoordinated and slowed motility at 5 uM measured after 24 hrs; format: functional, organism-based
Schistosoma mansoni [9] = assay: Antischistosomal activity against adult stage of Schistosoma mansoni assessed as reduction in worm motility measured after 24 hrs; format: functional, organism-based
[10] = Selectivity index, ratio of CC50 for human HEK293 cells to EC50 for antischistosomal activity against adult stage of Schistosoma mansoni; format: toxicity; conditions: read-out: Ratio CC50/EC50

COc1ccc(NC(=O)c2ccc(C#N)cc2)cc1OC
> 20 µM: CC50 (HEK293)
inactive: Activity (Schistosoma mansoni [1]) | Activity (Schistosoma mansoni [2]) | Activity (Schistosoma mansoni [3]) | Activity (Schistosoma mansoni [4]) | Activity (Schistosoma mansoni [5]) | Activity (Schistosoma mansoni [6]) | Activity (Schistosoma mansoni [7]) | Activity (Schistosoma mansoni [8])

COc1ccc(NC(=O)c2ccc(C(F)(F)F)cc2)cc1OC
inactive: Activity (Schistosoma mansoni [1]) | Activity (Schistosoma mansoni [2]) | Activity (Schistosoma mansoni [3]) | Activity (Schistosoma mansoni [4]) | Activity (Schistosoma mansoni [5]) | Activity (Schistosoma mansoni [6]) | Activity (Schistosoma mansoni [7]) | Activity (Schistosoma mansoni [8])
> 20 µM: CC50 (HEK293)

O=C(Nc1ccc(F)c(F)c1)c1ccc(F)cc1
> 20 µM: CC50 (HEK293)
inactive: Activity (Schistosoma mansoni [2]) | Activity (Schistosoma mansoni [5]) | Activity (Schistosoma mansoni [7]) | Activity (Schistosoma mansoni [8])

O=C(Nc1ccc(Cl)nn1)c1cccc(F)c1
inactive: Activity (Schistosoma mansoni [1]) | Activity (Schistosoma mansoni [2]) | Activity (Schistosoma mansoni [3]) | Activity (Schistosoma mansoni [4]) | Activity (Schistosoma mansoni [5]) | Activity (Schistosoma mansoni [6]) | Activity (Schistosoma mansoni [7]) | Activity (Schistosoma mansoni [8])
> 20 µM: CC50 (HEK293)

O=C(Nc1ccc(Cl)c(Cl)c1)c1ccc(C(F)(F)F)cc1
active: Activity (Schistosoma mansoni [2]) | Activity (Schistosoma mansoni [3]) | Activity (Schistosoma mansoni [5]) | Activity (Schistosoma mansoni [6])
0.08 µM: EC50 (Schistosoma mansoni [9])
123: selectivity ratio [10]

O=C(Nc1ccccc1)c1ccc(F)cc1
inactive: Activity (Schistosoma mansoni [1]) | Activity (Schistosoma mansoni [2]) | Activity (Schistosoma mansoni [3]) | Activity (Schistosoma mansoni [4]) | Activity (Schistosoma mansoni [5]) | Activity (Schistosoma mansoni [6]) | Activity (Schistosoma mansoni [7]) | Activity (Schistosoma mansoni [8])
> 20 µM: CC50 (HEK293)

O=C(Nc1cccc(C(F)(F)F)c1)c1ccc(F)cc1
> 20 µM: CC50 (HEK293)
inactive: Activity (Schistosoma mansoni [1]) | Activity (Schistosoma mansoni [2]) | Activity (Schistosoma mansoni [3]) | Activity (Schistosoma mansoni [5]) | Activity (Schistosoma mansoni [7]) | Activity (Schistosoma mansoni [8])

Cc1ccc(NC(=O)c2ccc(C#N)cc2)cc1C
> 20 µM: CC50 (HEK293)
inactive: Activity (Schistosoma mansoni [1]) | Activity (Schistosoma mansoni [2]) | Activity (Schistosoma mansoni [3]) | Activity (Schistosoma mansoni [4]) | Activity (Schistosoma mansoni [5]) | Activity (Schistosoma mansoni [6]) | Activity (Schistosoma mansoni [7]) | Activity (Schistosoma mansoni [8])

O=C(Nc1ccc(F)c(F)c1)c1ccc(C(F)(F)F)cc1
3.84: selectivity ratio [10]
14.6 µM: CC50 (HEK293)
active: Activity (Schistosoma mansoni [1]) | Activity (Schistosoma mansoni [2]) | Activity (Schistosoma mansoni [4]) | Activity (Schistosoma mansoni [8])
3.8 µM: EC50 (Schistosoma mansoni [9])

Cc1ccc(NC(=O)c2ccc(C(F)(F)F)cc2)cc1C
3.7 µM: EC50 (Schistosoma mansoni [9])
active: Activity (Schistosoma mansoni [1]) | Activity (Schistosoma mansoni [2]) | Activity (Schistosoma mansoni [4]) | Activity (Schistosoma mansoni [5])
> 20 µM: CC50 (HEK293)
> 5.4: selectivity ratio [10]

Cc1ccc(NC(=O)c2ccccc2)cc1C
> 20 µM: CC50 (HEK293)
inactive: Activity (Schistosoma mansoni [1]) | Activity (Schistosoma mansoni [2]) | Activity (Schistosoma mansoni [3]) | Activity (Schistosoma mansoni [4]) | Activity (Schistosoma mansoni [5]) | Activity (Schistosoma mansoni [6]) | Activity (Schistosoma mansoni [7]) | Activity (Schistosoma mansoni [8])

O=C(Nc1cccc(C(F)(F)F)c1)c1ccc(C(F)(F)F)cc1
10.1: selectivity ratio [10]
active: Activity (Schistosoma mansoni [2]) | Activity (Schistosoma mansoni [3]) | Activity (Schistosoma mansoni [5]) | Activity (Schistosoma mansoni [6])
1.1 µM: EC50 (Schistosoma mansoni [9])

Cc1ccc(NC(=O)c2ccc(F)cc2)cc1C
inactive: Activity (Schistosoma mansoni [1]) | Activity (Schistosoma mansoni [2]) | Activity (Schistosoma mansoni [3]) | Activity (Schistosoma mansoni [4]) | Activity (Schistosoma mansoni [5]) | Activity (Schistosoma mansoni [6]) | Activity (Schistosoma mansoni [7]) | Activity (Schistosoma mansoni [8])
> 20 µM: CC50 (HEK293)

O=C(Nc1ccccc1)c1ccc(C(F)(F)F)cc1
inactive: Activity (Schistosoma mansoni [1]) | Activity (Schistosoma mansoni [2]) | Activity (Schistosoma mansoni [3]) | Activity (Schistosoma mansoni [4]) | Activity (Schistosoma mansoni [5]) | Activity (Schistosoma mansoni [6]) | Activity (Schistosoma mansoni [7]) | Activity (Schistosoma mansoni [8])
> 20 µM: CC50 (HEK293)

O=C(Nc1ccc(Cl)c(Cl)c1)c1ccccc1
active: Activity (Schistosoma mansoni [1]) | Activity (Schistosoma mansoni [4]) | Activity (Schistosoma mansoni [7]) | Activity (Schistosoma mansoni [8])
> 20 µM: CC50 (HEK293)

N#Cc1ccc(C(=O)Nc2cccc(C(F)(F)F)c2)cc1
inactive: Activity (Schistosoma mansoni [1]) | Activity (Schistosoma mansoni [2]) | Activity (Schistosoma mansoni [3]) | Activity (Schistosoma mansoni [4]) | Activity (Schistosoma mansoni [5]) | Activity (Schistosoma mansoni [6]) | Activity (Schistosoma mansoni [7]) | Activity (Schistosoma mansoni [8])
> 20 µM: CC50 (HEK293)

COc1ccc(NC(=O)c2ccccc2)cc1OC
inactive: Activity (Schistosoma mansoni [1]) | Activity (Schistosoma mansoni [2]) | Activity (Schistosoma mansoni [3]) | Activity (Schistosoma mansoni [4]) | Activity (Schistosoma mansoni [5]) | Activity (Schistosoma mansoni [6]) | Activity (Schistosoma mansoni [7]) | Activity (Schistosoma mansoni [8])
> 20 µM: CC50 (HEK293)

O=C(Nc1ccc(F)c(F)c1)c1ccccc1
inactive: Activity (Schistosoma mansoni [1]) | Activity (Schistosoma mansoni [2]) | Activity (Schistosoma mansoni [3]) | Activity (Schistosoma mansoni [4]) | Activity (Schistosoma mansoni [5]) | Activity (Schistosoma mansoni [6]) | Activity (Schistosoma mansoni [7]) | Activity (Schistosoma mansoni [8])
> 20 µM: CC50 (HEK293)

COc1ccc(NC(=O)c2ccc(F)cc2)cc1OC
inactive: Activity (Schistosoma mansoni [1]) | Activity (Schistosoma mansoni [2]) | Activity (Schistosoma mansoni [3]) | Activity (Schistosoma mansoni [5]) | Activity (Schistosoma mansoni [7]) | Activity (Schistosoma mansoni [8])
> 20 µM: CC50 (HEK293)

N#Cc1ccc(C(=O)Nc2ccc(F)c(F)c2)cc1
> 20 µM: CC50 (HEK293)
inactive: Activity (Schistosoma mansoni [1]) | Activity (Schistosoma mansoni [2]) | Activity (Schistosoma mansoni [3]) | Activity (Schistosoma mansoni [4]) | Activity (Schistosoma mansoni [5]) | Activity (Schistosoma mansoni [6]) | Activity (Schistosoma mansoni [7]) | Activity (Schistosoma mansoni [8])

O=C(Nc1ccc(Cl)c(Cl)c1)c1ccc(F)cc1
> 20 µM: CC50 (HEK293)
active: Activity (Schistosoma mansoni [1]) | Activity (Schistosoma mansoni [4]) | Activity (Schistosoma mansoni [7]) | Activity (Schistosoma mansoni [8])

COc1ccc(NC(=O)c2cc(Cl)ccc2O)cc1OC
> 20 µM: CC50 (HEK293)
inactive: Activity (Schistosoma mansoni [4]) | Activity (Schistosoma mansoni [6])

O=C(Nc1ccc(C(F)(F)F)cc1)c1ccc(C(F)(F)F)cc1
> 16: selectivity ratio [10]
active: Activity (Schistosoma mansoni [2]) | Activity (Schistosoma mansoni [8])
1.25 µM: EC50 (Schistosoma mansoni [9])
> 20 µM: CC50 (HEK293)

N#Cc1ccc(C(=O)Nc2ccccc2)cc1
> 20 µM: CC50 (HEK293)
inactive: Activity (Schistosoma mansoni [1]) | Activity (Schistosoma mansoni [2]) | Activity (Schistosoma mansoni [3]) | Activity (Schistosoma mansoni [4]) | Activity (Schistosoma mansoni [5]) | Activity (Schistosoma mansoni [6]) | Activity (Schistosoma mansoni [7]) | Activity (Schistosoma mansoni [8])

O=C(Nc1cccc(C(F)(F)F)c1)c1ccccc1
> 20 µM: CC50 (HEK293)
inactive: Activity (Schistosoma mansoni [2]) | Activity (Schistosoma mansoni [5]) | Activity (Schistosoma mansoni [7]) | Activity (Schistosoma mansoni [8])
